The text below walks through data of patent US20220409617A1, “Drug Formulations and Methods of Treatment for Metabolic Disorders” (The Regents of the University of California, priority 2019, published 2022).

Molecules are shown by their SMILES. Entries after “also recorded” stand apart in the source; their conditions may differ.

One data set has as its system KRAS G12D knock-in MEFs. As to the kind of experiment: KRAS-mediated mitochondrial fission in KRAS G12D knock-in MEFs. Type of data set: cell-based, mouse. Particulars: 893 5 μM. The method, then:
3T3-L1 cells were maintained in DMEM with 10% FBS and 1% penicillin-streptomycin until induced to differentiate. 3T3-L1 pre-adipocytes were differentiated as described in (M. P. Valley, et al., Anal. Biochem. 505: 43-50, 2016, the disclosure of which is incorporated herein by reference) with slight modifications. Briefly, pre-adipocytes were grown to confluence. After 2 d, cells were induced with maintenance media containing 500 μM IBMX (15879, Sigma-Aldrich, St. Louis, Mo.), 1 μM dexamethasone (D4902, Sigma-Aldrich), 5 μg/mL bovine insulin (10516, Sigma-Aldrich), and 5 μM troglitazone (50-115-0786, ApexBio). Media was changed every 2-3 d for 7 d. On day 7 post-induction, media was changed to maintenance media+5 μg/mL bovine insulin. On day 9 post-induction, media was changed to maintenance media. Mature adipocytes were used 12-14 d post-induction for all experiments. […]
MEFs were washed twice with PBS and fixed with 4% paraformaldehyde for 10 min at RT. […] NADH/NADPH autofluorescence was detected with 740 nm excitation and 450±50 nm detectors using a Mai Tai two-photon laser. Fluorescence microscopy was performed on a Zeiss LSM 780 confocal using a 63× oil objective with a […] numerical aperture (NA) or using a Nikon TE2000-S inverted epifluorescence microscope with a 100× oil objective (1.3 NA) and a Photometrics CoolSNAP ES2 monochrome CCD camera. […]

Data set [1] can be described thus: Voluntary cage running in HFD-fed mice. In kind it is in vivo, mouse. The source says: Exercise can mitigate the negative effects of hyper-nutrition. When provided with a running wheel, mice will voluntarily run 2-10 km per night, slowing the body weight and fat gain that normally accompany HFD feeding and improving metabolic status. To benchmark the effects of sphingolipid-like compound 893 against voluntary exercise and to determine whether the beneficial effects of these interventions are additive, 16 male, C57BL/6J mice that had been fed a HFD for 7 weeks were individually housed, provided with running wheels, and randomly assigned to receive vehicle or 120 mg/kg sphingolipid-like compound 893 on the Monday/Wednesday/Friday schedule. Rodent running activity declines under stress, and monitoring the duration and distance of voluntary wheel running also provides a holistic measure of overall mouse health. […] As expected, voluntary exercise led to weight loss in vehicle-treated mice maintained on a HFD that leveled off after the first week of intervention (FIGS. 15, 21, & 22). […] Wheel running reduced fat mass while maintaining lean mass in all groups (FIGS. 15, 22 & 23).
To monitor voluntary exercise, sixteen mice were singly housed in home cages equipped with running wheels; initially n=8. A magnet was affixed to each 240 mm wheel and a bicycle odometer (Sigma BC509, Sigma Sports, Chicago) used to count the number of wheel revolutions and time spent on running on the wheels. Distance run was calculated by the equation (#revolutions×running wheel circumference=distance). The wheels were cleaned and randomly re-assigned weekly to each cage to control for differences in wheel performance. Two animals in the sphingolipid-like compound 893-treated group were euthanized due to gavage errors and were excluded from the analysis resulting in n=6.

In data set [2] the test system is protein phosphatase 2A (PP2A). Particulars: cited from earlier work.
The conditions of data set [3]: cited from earlier work.
For another data set, the system named is AKT. Particulars: cited from earlier work.
The test system of data set [4] is mouse embryonic fibroblasts (MEFs). Type of data set: cell-based. Particulars: 3 h pre-treatment then palmitate 250 μM 3 h, 893 5 μM, myriocin 10 μM, fumonisin B1 30 μM, NAV-2729 12.5 μM, YM201636 800 nM, celastrol 500 nM.
Description: Mitochondrial morphology was assessed by examining citrate synthesis expression under a high resolution microscopy. Specifically, the aspect ratio, branch length and roundness of mitochondria was assessed (FIG. 1).
LSL-KrasG12D mouse embryonic fibroblasts (MEFs) with and without Cre-mediated deletion of the STOP cassette were obtained from David Tuveson (Cold Spring Harbor Laboratory, Cold Spring Harbor N.Y., USA) in 2000. p53^flox/flox MEFs were derived in house (2015) from C57BL/6 mice using standard techniques and immortalized by transient expression of Cre recombinase and deletion of p53. MEFs were cultured and maintained in DMEM with 10% FBS and 1% penicillin-streptomycin. […] Stock solution of palmitic acid (ACROS Organics, cat # AC129702500) was prepared at 100 mM in ethanol. Palmitate (250 μM) was conjugated to 1% (w/v) fatty-acid free bovine serum albumin (Sigma, A8806) in DMEM at 37° C. for 20 min. For all immunofluorescence assays, 8,000 MEFs were seeded into 8-chamber slides (Cellvis, cat # C8-1.5H-N) 12-16 h before treatment. Cells were pre-treated with sphingolipid-like compound 893 (5 μM in water), myriocin (10 μM in methanol), fumonisin-B1 (30 μM in DMSO), or celastrol (500 nM in DMSO) for 3 h followed by a 3 h treatment with BSA-conjugated palmitate mixture or BSA alone.
Where [5] appears, read: 120 mg/kg by oral gavage, prior studies.

Consider `CCCCCCCCc1ccc([C@H]2CCN[C@@H]2CO)cc1.Cl` [compound 893], for which the “Correction of KRAS-mediated mitochondrial fission in KRAS G12D MEFs” value in the data set on KRAS G12D knock-in MEFs is on record as “rapidly corrected KRAS-mediated mitochondrial fission”. For the same compound, in data set [1] (HFD-fed mice with running wheels, 120 mg/kg), the “Average time spent on running wheels each day” value was “equivalent in vehicle- and sphingolipid-like compound 893-treated groups”. Besides, the “Average daily distance run” value in data set [1] (HFD-fed mice with running wheels, 120 mg/kg Mon/Wed/Fri) is listed as 2.8±1.2 km. Besides, the “Weight loss, running wheel plus treatment” value in data set [1] (HFD-fed mice, running wheel and 120 mg/kg) is given as “even greater weight loss than observed with either treatment alone”. Besides, the “Effect on PP2A” value in data set [2] is given as “activate protein phosphatase 2A (PP2A)”. Also, in data set [3] (setting [5]), the “Amino acid-dependent mTORC1 signaling” value is on record as “reduces amino acid-dependent mTORC1 signaling”; the “Toxicity (blood chemistry, complete blood count, liver and small intestine histology)” value is listed as “without toxicity”; the Tumor growth entry is listed as “inhibits tumor growth”. In addition, in data set [3] (chronic treatment with the high dose, otherwise healthy tumor-bearing mice), the Hepatotoxicity result was “not hepatotoxic”. Also, in the data set on AKT, the “Effect on AKT activity” value is recorded as “does not reduce AKT activity”. Also, in data set [4], the “Protection from palmitate-induced mitochondrial fragmentation (aspect ratio, branch length, roundness)” value was “robust protection from both ceramide- and palmitate-induced mitochondrial fragmentation; also recorded: preserved a tubular, branched mitochondrial network in palmitate-treated cells”.
